Measured values from US9301910B2, “Fragrant formulations, methods of manufacture thereof and articles comprising the same” (GFBiochemicals Limited, priority 2010, dated 2016).

Columns and labels:
Format in all cases: physicochemical
[1] = Miscibility of alkyl ketal esters with water; details: for miscible in water to the extent of: parts of ester, balance to 100 parts is water (1 per 99, 2.5 in 97.5, 5 per 95); for miscibility with water: miscibility assessed at 25° C unless stated otherwise
Method: (§1) Unless stated otherwise, miscibility is assessed at 25° C.

[2] = Miscibility of alkyl ketal esters with organic compounds; details: parts of the organic compound in 80 parts of the alkyl ketal ester; organic compounds as listed in the block
Method: as §1

[3] = Compatibility between waxes and alkyl ketal esters (melt, cool to room temperature)
Method: Compatibility between various waxes and the alkyl ketal esters was first determined as detailed below. Table 10 below details the fragrant formulations for 10 different candles (Examples 116-125) that contain the fragrant composition.
Beeswax and Et-LGK were weighed into a vessel in a 50/50 weight ratio and heated to 80° C. to form a uniform molten mixture.
Gulf Wax brand of household paraffin wax for canning and candlemaking (distributed by Royal Oak Enterprises) was used in these experiments.

[4] = Dissolution of vanillin in alkyl ketal esters
Method: […] […] Dissolution is much quicker at 80° C.
Vanillin was dissolved at 25% solids by weight in Et-LPK with slight heating (80° C.).

[5] = Compatibility between waxes and alkyl ketal esters (melt, cool to room temperature); details: 25/75 weight ratio of Et-LGK to beeswax, 80° C, cooled
[6] = NatureWax C-3 / ester 90/10 weight ratio, 80° C, cooled
[7] = beeswax / ester 50/50 weight ratio, melted at 80° C, cooled to room temperature
[8] = candelilla wax / ester 50/50 weight ratio, 120° C, cooled
[9] = carnauba wax / ester 50/50 weight ratio, 120° C, cooled
[10] = paraffin wax / ester 75/25 weight ratio, 80° C, cooled to room temperature
[11] = NatureWax C-1 / ester 90/10 weight ratio, 80° C, cooled
[12] = NatureWax P-1 / ester 75/25 weight ratio, 80° C, cooled
[13] = paraffin wax / ester 50/50 weight ratio, 80° C, cooled to room temperature
[14] = stearic acid / ester 50/50 weight ratio, 80° C, cooled to room temperature
[15] = vanillin at 10% solids by weight in the ester, room temperature

With CCCCOC(=O)CCC1(C)OCC(CO)O1 (stereo not shown) [Bu-LGK, glycerol ketal of butyl levulinate] the “miscible in water to the extent of” value [1] was 1 parts, the “dissolves or is miscible with organic compounds to the extent of” value (“dissolves or is miscible” for short) [2] was “at least 20 parts” and the layers upon cooling ([3]; NatureWax C-1 / ester 50/50 weight ratio, 80° C, cooled) was “single homogenous wax layer”. For the same compound, the layers upon cooling [3, 6] was “single homogenous wax layer”, the layers upon cooling ([3]; NatureWax P-1 / ester 50/50 weight ratio, 80° C, cooled) was “single homogenous wax layer” and the layers upon cooling [3, 7] was “single homogenous wax layer”. The layers upon cooling [3, 8] was “single homogenous wax layer”, the layers upon cooling [3, 9] was “single homogenous wax layer” and the layers upon cooling [3, 10] was “Two layers formed”. The dissolution of vanillin ([4]; vanillin at 25% solids by weight in the ester, room temperature) was “initially appeared to be insoluble but over the course of five days, the vanillin dissolved, resulting in a clear uniform mixture”.
With CCOC(=O)CC1(C)OCC(CO)O1 (stereo not shown) [Et-AcAcGK] the miscibility with water [1] was “miscible with water in all proportions”.
For CCOC(=O)CCC1(C)OCC(CO)O1 (stereo not shown) [Et-LGK, glycerol ketal of ethyl levulinate], the miscibility with water [1] was “miscible in water in all proportions”, the “dissolves or is miscible” value [2] was “at least 20 parts” and the layers upon cooling ([3]; 25/75 Et-LGK to stearic acid by weight, 80° C, cooled) was “single homogenous wax layer”. The layers upon cooling [3, 11] was “single homogenous wax layer”, the layers upon cooling [3, 6] was “single homogenous soft wax layer” and the layers upon cooling [3, 12] was “single homogenous wax layer”. For the same compound, the layers upon cooling [3, 7] was “Two layers formed”, the layers upon cooling ([3]; candelilla wax / ester 75/25 weight ratio, 120° C, cooled to room temperature) was “Two layers formed” and the layers upon cooling ([3]; candelilla wax / ester 90/10 weight ratio, 120° C, cooled) was “single homogenous wax layer”. The layers upon cooling [3, 9] was “Two layers formed”, the layers upon cooling ([3]; carnauba wax / ester 75/25 weight ratio, 120° C, cooled) was “single homogenous wax layer” and the layers upon cooling [3, 13] was “Two layers formed”. For the same compound, the layers upon cooling ([3]; paraffin wax / ester 90/10 weight ratio, 80° C, cooled to room temperature) was “single homogenous wax layer”, the layers upon cooling [3, 14] was “Two layers formed” and the dissolution of vanillin [4, 15] was “clear uniform mixture”. The layers upon cooling [5] was “single homogenous wax layer”.
For CCOC(=O)CCC1(C)OCC(C)O1 (stereo not shown) [Et-LPK, propylene glycol ketal of ethyl levulinate], the “miscible in water to the extent of” value [1] was 2.5 parts, the “dissolves or is miscible” value [2] was “at least 20 parts” and the layers upon cooling [3, 11] was “single homogenous wax layer”. The layers upon cooling [3, 6] was “single homogenous wax layer”, the layers upon cooling [3, 12] was “single homogenous wax layer” and the layers upon cooling [3, 7] was “single homogenous wax layer”. The layers upon cooling [3, 8] was “single homogenous wax layer”, the layers upon cooling [3, 9] was “single homogenous wax layer” and the layers upon cooling [3, 13] was “single homogenous wax layer”. For the same compound, the layers upon cooling [3, 10] was “single homogenous wax layer”, the layers upon cooling [3, 14] was “single homogenous wax layer” and the dissolution of vanillin [4, 15] was “clear uniform mixture”. For the same compound, the dissolution of vanillin ([4]; vanillin at 25% solids by weight in the ester, slight heating (80° C)) was “clear uniform solutions hot and stayed as a clear uniform mixture at room temperature initially” and the “precipitation of vanillin on standing” value ([4]; vanillin at 25% solids by weight, dissolved at 80° C, then room temperature) was “Within an hour, signs of precipitation at room temperature appeared”.
For COC(=O)CC1(C)OCC(CO)O1 (stereo not shown) [Me-AcAcGK], the miscibility with water [1] was “miscible with water in all proportions”.
For CCOC(=O)CCC1(C)OCCO1 [ethyl-LEK], the “miscible in water to the extent of” value [1] was 5 parts.
In the case of COC(=O)CCC1(C)OCC(CO)O1 (stereo not shown) [methyl-LGK], the miscibility with water [1] is reported as “miscible with water in all proportions”.
With CCCCOC(=O)CCC1(C)OCC(C)O1 (stereo not shown) [n-butyl-LPK] the “dissolves or is miscible” value [2] was “at least 20 parts”.
In the case of CCCOC(=O)CCC1(C)OCC(CO)O1 (stereo not shown) [n-propyl-LGK], the “miscible in water to the extent of” value [1] is reported as 1 parts.
